Measured values taken from ChEMBL document CHEMBL2074114, “Inhibitory effect of novel oral hypoglycemic agent nateglinide (AY4166) on peptide transporters PEPT1 and PEPT2” (Eur J Pharmacol, 2000).
Values belong to the molecule of their own block, whether it stands above or below them.

Columns and labels:
Type in all cases: functional, cell-based
[1] = target: T1, Solute carrier family 15 member 1 (Rattus norvegicus, UniProt P51574); test: TP_TRANSPORTER: inhibition of Gly-Sar uptake (Gly-Sar: 20 uM) in PEPT1-expressing LLC-PK1 cells
T1 sequence (P51574 whole entry): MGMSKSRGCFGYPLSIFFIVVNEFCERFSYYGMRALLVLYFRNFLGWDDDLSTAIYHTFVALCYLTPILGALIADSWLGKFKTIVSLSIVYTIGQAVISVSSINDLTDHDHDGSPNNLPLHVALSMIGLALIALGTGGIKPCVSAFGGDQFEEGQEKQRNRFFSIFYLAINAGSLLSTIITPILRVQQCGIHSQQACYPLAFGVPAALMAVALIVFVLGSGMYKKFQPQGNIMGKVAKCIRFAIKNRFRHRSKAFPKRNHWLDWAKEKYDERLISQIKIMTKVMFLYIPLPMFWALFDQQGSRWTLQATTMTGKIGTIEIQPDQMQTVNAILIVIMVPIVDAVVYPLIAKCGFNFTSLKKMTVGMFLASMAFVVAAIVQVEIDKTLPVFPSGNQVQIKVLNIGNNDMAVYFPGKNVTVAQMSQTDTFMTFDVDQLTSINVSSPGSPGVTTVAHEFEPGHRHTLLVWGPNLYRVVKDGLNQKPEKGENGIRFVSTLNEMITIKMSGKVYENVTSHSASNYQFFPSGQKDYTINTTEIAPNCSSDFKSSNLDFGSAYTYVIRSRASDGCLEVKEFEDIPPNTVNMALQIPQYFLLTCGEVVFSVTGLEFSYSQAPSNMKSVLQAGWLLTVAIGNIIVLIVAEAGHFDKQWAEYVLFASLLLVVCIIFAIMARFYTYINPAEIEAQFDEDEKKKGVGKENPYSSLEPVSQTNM

[2] = target: T2, Solute carrier family 15 member 1 (Rattus norvegicus) (UniProt P51574); test: TP_TRANSPORTER: uptake in PEPT1-expressing LLC-PK1 cells
T2 sequence (whole entry): T1 sequence (P51574 whole entry)

[3] = target: T3, Solute carrier family 15 member 2 (Rattus norvegicus) (UniProt Q63424); test: TP_TRANSPORTER: uptake in PEPT2-expressing LLC-PK1 cells
T3 sequence (whole entry): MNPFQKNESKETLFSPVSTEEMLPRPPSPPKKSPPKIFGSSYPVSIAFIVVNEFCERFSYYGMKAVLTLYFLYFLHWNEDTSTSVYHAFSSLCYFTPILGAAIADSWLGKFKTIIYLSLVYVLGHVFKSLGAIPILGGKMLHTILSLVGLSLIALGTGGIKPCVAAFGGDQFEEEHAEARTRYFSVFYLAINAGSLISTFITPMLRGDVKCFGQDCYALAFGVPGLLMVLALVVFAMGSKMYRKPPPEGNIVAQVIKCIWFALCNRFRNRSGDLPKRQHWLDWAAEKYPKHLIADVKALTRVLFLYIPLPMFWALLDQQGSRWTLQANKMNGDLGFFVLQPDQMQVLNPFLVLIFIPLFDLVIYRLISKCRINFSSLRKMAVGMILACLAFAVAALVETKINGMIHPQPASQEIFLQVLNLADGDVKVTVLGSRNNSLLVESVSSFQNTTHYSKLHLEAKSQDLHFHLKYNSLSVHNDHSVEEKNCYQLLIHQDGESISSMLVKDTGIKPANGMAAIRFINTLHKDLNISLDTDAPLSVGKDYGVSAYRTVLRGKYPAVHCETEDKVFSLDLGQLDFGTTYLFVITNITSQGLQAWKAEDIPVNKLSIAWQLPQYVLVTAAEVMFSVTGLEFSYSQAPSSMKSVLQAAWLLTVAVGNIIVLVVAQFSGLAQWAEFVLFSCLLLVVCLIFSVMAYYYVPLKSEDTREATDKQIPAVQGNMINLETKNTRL

[4] = target: T4, Solute carrier family 15 member 2 (Rattus norvegicus, UniProt Q63424); test: TP_TRANSPORTER: inhibition of Gly-Sar uptake (Gly-Sar: 20 uM) in PEPT2-expressing LLC-PK1 cells
T4 sequence (Q63424 whole entry): T3 sequence (whole entry)

[5] = target: T2, Solute carrier family 15 member 1 (Rattus norvegicus); test: TP_TRANSPORTER: inhibition of Gly-Sar uptake (Gly-Sar: 20 uM, Chlorpropamide: 1000uM) in PEPT1-expressing LLC-PK1 cells
[6] = target: T3, Solute carrier family 15 member 2 (Rattus norvegicus); test: TP_TRANSPORTER: inhibition of Gly-Sar uptake (Gly-Sar: 20 uM, Chlorpropamide: 1000uM) in PEPT2-expressing LLC-PK1 cells
[7] = target: T3, Solute carrier family 15 member 2 (Rattus norvegicus); test: TP_TRANSPORTER: inhibition of Gly-Sar uptake (Gly-Sar: 20 uM, Tolbutamide: 1000uM) in PEPT2-expressing LLC-PK1 cells
[8] = target: T2, Solute carrier family 15 member 1 (Rattus norvegicus); test: TP_TRANSPORTER: inhibition of Gly-Sar uptake (Gly-Sar: 20 uM, Tolbutamide: 1000uM) in PEPT1-expressing LLC-PK1 cells

IC50 [1]: 160 µM
Activity [2]: is not a substrate [-]
Activity [3]: is not a substrate [-]
IC50 [4]: 70 µM
SMILES: CC(C)[C@H]1CC[C@H](C(=O)N[C@H](Cc2ccccc2)C(=O)O)CC1 [NATEGLINIDE]

Activity [5]: inhibitor [+]
Activity [6]: inhibitor [+]
SMILES: CCCNC(=O)NS(=O)(=O)c1ccc(Cl)cc1

Activity [7]: inhibitor [+]
Activity [8]: inhibitor [+]
SMILES: CCCCNC(=O)NS(=O)(=O)c1ccc(C)cc1
